Assay results as given in ChEMBL document CHEMBL4390652, “Design, biological evaluation and X-ray crystallography of nanomolar multifunctional ligands targeting simultaneously acetylcholinesterase and glycogen synthase kinase-3” (Eur J Med Chem, 2019).

What was measured:
[1] = biological target: Casein kinase I isoform epsilon (Homo sapiens) (UniProt P49674); test: Binding affinity to wild-type human full length CSNK1E (M1 to K416 residues) expressed in bacterial expression system assessed as residual binding level at 10 uM by Kinomescan method relative to control
[2] = biological target: Maternal embryonic leucine zipper kinase (Homo sapiens) (UniProt Q14680); test: Binding affinity to wild-type human full length MELK (M1 to V651 residues) expressed in bacterial expression system assessed as residual binding level at 10 uM by Kinomescan method relative to control
[3] = biological target: Cyclin-dependent kinase 2 (Homo sapiens) (UniProt P24941); test: Binding affinity to wild-type human full length CDK2 (M1 to L298 residues) expressed in bacterial expression system assessed as residual binding level at 10 uM by Kinomescan method relative to control
[4] = biological target: Ephrin type-A receptor 3 (Homo sapiens) (UniProt P29320); test: Binding affinity to wild-type human partial length EPHA3 (D604 to K889 residues) expressed in bacterial expression system assessed as residual binding level at 10 uM by Kinomescan method relative to control
[5] = biological target: TGF-beta receptor type-1 (Homo sapiens) (UniProt P36897); test: Binding affinity to wild-type human partial length TGFBR1 (D179 to M503 residues) expressed in bacterial expression system assessed as residual binding level at 10 uM by Kinomescan method relative to control
[6] = test system: Tyrosine-protein kinase ABL1 (Homo sapiens), P00519 [E255K]; test: Binding affinity to human phosphorylated ABL1 E255K mutant (S229 to K512 residues) expressed in mammalian expression system assessed as residual binding level at 10 uM by Kinomescan method relative to control
[7] = biological target: Serine/threonine-protein kinase D2 (Homo sapiens) (UniProt Q9BZL6); test: Binding affinity to wild-type human partial length PRKD2 (A519 to E838 residues) expressed in bacterial expression system assessed as residual binding level at 10 uM by Kinomescan method relative to control
[8] = biological target: Mitogen-activated protein kinase kinase kinase 6 (Homo sapiens) (UniProt O95382); test: Binding affinity to wild-type human partial length ASK2 (M278 to R972 residues) expressed in mammalian expression system assessed as residual binding level at 10 uM by Kinomescan method relative to control
[9] = biological target: Dual specificity mitogen-activated protein kinase kinase 6 (Homo sapiens) (UniProt P52564); test: Binding affinity to wild-type human partial length MEK6 (K36 to D334 residues) expressed in bacterial expression system assessed as residual binding level at 10 uM by Kinomescan method relative to control
[10] = test system: MDR1; test: in vitro; settings: dog, MDCK-MDR1
Description: Efflux ratio of apparent permeability from basolateral to apical over apical to basolateral side in MDCK2-MDR1 cells by HPLC analysis

[11] = biological target: Calcium/calmodulin-dependent protein kinase type 1 (Homo sapiens) (UniProt Q14012); test: Binding affinity to wild-type human full length CAMK1 (M1 to L370 residues) expressed in bacterial expression system assessed as residual binding level at 10 uM by Kinomescan method relative to control
[12] = biological target: Rhodopsin kinase GRK1 (Homo sapiens) (UniProt Q15835); test: Binding affinity to wild-type human full length GRK1 (M1 to S563 residues) expressed in mammalian expression system assessed as residual binding level at 10 uM by Kinomescan method relative to control
[13] = test system: Proto-oncogene tyrosine-protein kinase receptor Ret (Homo sapiens), P07949 [M918T]; test: Binding affinity to human partial length RET M918T mutant (E713 to D1014 residues) expressed in bacterial expression system assessed as residual binding level at 10 uM by Kinomescan method relative to control
[14] = biological target: Serine/threonine-protein kinase NIM1 (Homo sapiens) (UniProt Q8IY84); test: Binding affinity to wild-type human partial length NIM1 (Q44 to N355 residues) expressed in mammalian expression system assessed as residual binding level at 10 uM by Kinomescan method relative to control
[15] = biological target: Serine/threonine-protein kinase 25 (Homo sapiens) (UniProt O00506); test: Binding affinity to wild-type human partial length YSK1 (V14 to H295 residues) expressed in bacterial expression system assessed as residual binding level at 10 uM by Kinomescan method relative to control
[16] = biological target: Ribosomal protein S6 kinase alpha-4 (Homo sapiens) (UniProt O75676); test: Binding affinity to wild-type human partial length C-terminal RPS6KA4 kinase domain 2 (M375 to T705 residues) expressed in mammalian expression system assessed as residual binding level at 10 uM by Kinomescan method relative to control
[17] = biological target: Tyrosine-protein kinase ZAP-70 (Homo sapiens) (UniProt P43403); test: Binding affinity to wild-type human partial length ZAP70 (D20 to G299 residues) expressed in mammalian expression system assessed as residual binding level at 10 uM by Kinomescan method relative to control
[18] = biological target: Receptor-interacting serine/threonine-protein kinase 4 (Homo sapiens) (UniProt P57078); test: Binding affinity to wild-type human partial length RIPK4 (M1 to V303 residues) expressed in mammalian expression system assessed as residual binding level at 10 uM by Kinomescan method relative to control
[19] = test system: Phosphatidylinositol 4,5-bisphosphate 3-kinase catalytic subunit alpha isoform (Homo sapiens), P42336 [E542K]; test: Binding affinity to human partial length PIK3CA E542K mutant (R108 to N1068 residues) expressed in mammalian expression system assessed as residual binding level at 10 uM by Kinomescan method relative to control
[20] = biological target: Serine/threonine-protein kinase tousled-like 2 (Homo sapiens) (UniProt Q86UE8); test: Binding affinity to wild-type human partial length TLK2 (E424 to N749 residues) expressed in bacterial expression system assessed as residual binding level at 10 uM by Kinomescan method relative to control
[21] = biological target: Ephrin type-B receptor 1 (Homo sapiens) (UniProt P54762); test: Binding affinity to wild-type human partial length EPHB1 (P589 to T911 residues) expressed in bacterial expression system assessed as residual binding level at 10 uM by Kinomescan method relative to control
[22] = biological target: Cyclin-dependent kinase 17 (Homo sapiens) (UniProt Q00537); test: Binding affinity to wild-type human full length PCTK2 (M1 to F523 residues) expressed in bacterial expression system assessed as residual binding level at 10 uM by Kinomescan method relative to control
[23] = biological target: Insulin-like growth factor 1 receptor (Homo sapiens) (UniProt P08069); test: Binding affinity to wild-type human partial length IGF1R (L972 to D1294 residues) expressed in bacterial expression system assessed as residual binding level at 10 uM by Kinomescan method relative to control
[24] = biological target: Serine/threonine-protein kinase N2 (Homo sapiens) (UniProt Q16513); test: Binding affinity to wild-type human partial length PKN2 (E634 to C984 residues) expressed in bacterial expression system assessed as residual binding level at 10 uM by Kinomescan method relative to control
[25] = biological target: Casein kinase II subunit alpha (Homo sapiens) (UniProt P68400); test: Binding affinity to wild-type human full length CSNK2A1 (M1 to Q391 residues) expressed in mammalian expression system assessed as residual binding level at 10 uM by Kinomescan method relative to control

Sequence of Dual specificity mitogen-activated protein kinase kinase 6 (Homo sapiens) (P52564 whole entry, the tested form may be a part): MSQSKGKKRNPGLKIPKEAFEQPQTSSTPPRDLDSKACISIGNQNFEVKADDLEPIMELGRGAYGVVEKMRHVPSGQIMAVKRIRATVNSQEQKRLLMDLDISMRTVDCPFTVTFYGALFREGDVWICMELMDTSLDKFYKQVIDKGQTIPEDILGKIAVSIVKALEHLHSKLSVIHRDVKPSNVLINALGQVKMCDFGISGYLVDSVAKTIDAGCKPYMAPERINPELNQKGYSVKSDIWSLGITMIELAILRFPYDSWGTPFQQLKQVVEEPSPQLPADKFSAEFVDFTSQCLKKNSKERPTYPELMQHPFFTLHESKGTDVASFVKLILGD
Sequence of Tyrosine-protein kinase ABL1 (Homo sapiens), P00519 [E255K] (P00519 whole entry E255K, the tested form may be a part): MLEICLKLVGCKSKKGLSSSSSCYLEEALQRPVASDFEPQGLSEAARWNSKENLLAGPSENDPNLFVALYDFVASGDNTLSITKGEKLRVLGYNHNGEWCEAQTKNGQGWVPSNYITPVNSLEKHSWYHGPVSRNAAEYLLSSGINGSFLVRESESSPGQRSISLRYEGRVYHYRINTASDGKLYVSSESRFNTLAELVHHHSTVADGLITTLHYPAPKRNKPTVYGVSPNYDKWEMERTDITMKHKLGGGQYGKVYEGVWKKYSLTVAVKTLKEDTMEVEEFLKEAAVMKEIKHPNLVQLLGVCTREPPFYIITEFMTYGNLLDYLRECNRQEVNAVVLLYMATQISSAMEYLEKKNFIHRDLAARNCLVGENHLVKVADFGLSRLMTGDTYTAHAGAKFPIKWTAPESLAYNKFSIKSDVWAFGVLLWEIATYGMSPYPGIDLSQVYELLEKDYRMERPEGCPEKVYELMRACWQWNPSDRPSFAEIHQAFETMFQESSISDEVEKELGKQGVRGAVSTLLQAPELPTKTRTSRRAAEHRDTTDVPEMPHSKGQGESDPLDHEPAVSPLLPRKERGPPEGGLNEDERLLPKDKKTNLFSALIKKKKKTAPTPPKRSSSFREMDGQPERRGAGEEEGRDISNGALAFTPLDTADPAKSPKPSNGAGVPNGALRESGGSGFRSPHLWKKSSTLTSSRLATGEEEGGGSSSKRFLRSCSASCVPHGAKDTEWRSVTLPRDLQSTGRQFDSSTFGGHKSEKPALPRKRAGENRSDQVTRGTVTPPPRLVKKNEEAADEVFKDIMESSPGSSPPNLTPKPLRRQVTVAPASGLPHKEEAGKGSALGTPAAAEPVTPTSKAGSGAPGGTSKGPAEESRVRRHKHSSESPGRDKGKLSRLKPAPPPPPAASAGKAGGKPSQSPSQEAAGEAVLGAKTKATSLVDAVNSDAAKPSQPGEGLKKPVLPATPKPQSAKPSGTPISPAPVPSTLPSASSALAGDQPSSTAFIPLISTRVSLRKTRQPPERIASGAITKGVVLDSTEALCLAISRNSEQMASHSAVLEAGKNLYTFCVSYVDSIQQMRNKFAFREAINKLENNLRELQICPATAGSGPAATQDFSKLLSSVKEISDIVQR
Sequence of Calcium/calmodulin-dependent protein kinase type 1 (Homo sapiens) (Q14012 whole entry, looked up, the tested form may be a part): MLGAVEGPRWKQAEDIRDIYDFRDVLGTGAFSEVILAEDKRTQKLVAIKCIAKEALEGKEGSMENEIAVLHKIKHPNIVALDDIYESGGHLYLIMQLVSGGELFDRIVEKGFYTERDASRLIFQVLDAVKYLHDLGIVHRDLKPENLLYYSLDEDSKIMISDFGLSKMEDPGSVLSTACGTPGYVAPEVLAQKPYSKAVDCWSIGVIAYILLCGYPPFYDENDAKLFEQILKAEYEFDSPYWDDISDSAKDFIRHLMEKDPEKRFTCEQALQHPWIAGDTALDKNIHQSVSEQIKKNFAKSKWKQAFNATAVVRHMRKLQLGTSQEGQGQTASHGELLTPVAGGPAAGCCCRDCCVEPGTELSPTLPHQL
Sequence of Tyrosine-protein kinase ZAP-70 (Homo sapiens) (P43403 whole entry, the tested form may be a part): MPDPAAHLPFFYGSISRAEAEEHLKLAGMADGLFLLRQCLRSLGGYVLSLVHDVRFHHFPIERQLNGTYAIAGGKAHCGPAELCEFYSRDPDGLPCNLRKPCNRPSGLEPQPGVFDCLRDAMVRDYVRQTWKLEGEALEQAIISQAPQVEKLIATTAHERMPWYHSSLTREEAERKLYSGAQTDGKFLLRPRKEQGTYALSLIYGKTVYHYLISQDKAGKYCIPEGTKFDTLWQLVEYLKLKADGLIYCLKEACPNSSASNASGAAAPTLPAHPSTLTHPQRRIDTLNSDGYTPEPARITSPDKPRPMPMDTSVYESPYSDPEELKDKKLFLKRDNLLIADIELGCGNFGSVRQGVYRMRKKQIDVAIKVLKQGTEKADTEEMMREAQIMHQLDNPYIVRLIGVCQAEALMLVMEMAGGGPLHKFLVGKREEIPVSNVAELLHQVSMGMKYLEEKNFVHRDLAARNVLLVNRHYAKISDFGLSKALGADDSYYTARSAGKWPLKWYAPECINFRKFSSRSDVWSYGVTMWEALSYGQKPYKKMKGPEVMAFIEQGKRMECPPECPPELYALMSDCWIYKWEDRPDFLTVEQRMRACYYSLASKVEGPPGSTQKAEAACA
Sequence of Ephrin type-A receptor 3 (Homo sapiens) (P29320 whole entry, the tested form may be a part): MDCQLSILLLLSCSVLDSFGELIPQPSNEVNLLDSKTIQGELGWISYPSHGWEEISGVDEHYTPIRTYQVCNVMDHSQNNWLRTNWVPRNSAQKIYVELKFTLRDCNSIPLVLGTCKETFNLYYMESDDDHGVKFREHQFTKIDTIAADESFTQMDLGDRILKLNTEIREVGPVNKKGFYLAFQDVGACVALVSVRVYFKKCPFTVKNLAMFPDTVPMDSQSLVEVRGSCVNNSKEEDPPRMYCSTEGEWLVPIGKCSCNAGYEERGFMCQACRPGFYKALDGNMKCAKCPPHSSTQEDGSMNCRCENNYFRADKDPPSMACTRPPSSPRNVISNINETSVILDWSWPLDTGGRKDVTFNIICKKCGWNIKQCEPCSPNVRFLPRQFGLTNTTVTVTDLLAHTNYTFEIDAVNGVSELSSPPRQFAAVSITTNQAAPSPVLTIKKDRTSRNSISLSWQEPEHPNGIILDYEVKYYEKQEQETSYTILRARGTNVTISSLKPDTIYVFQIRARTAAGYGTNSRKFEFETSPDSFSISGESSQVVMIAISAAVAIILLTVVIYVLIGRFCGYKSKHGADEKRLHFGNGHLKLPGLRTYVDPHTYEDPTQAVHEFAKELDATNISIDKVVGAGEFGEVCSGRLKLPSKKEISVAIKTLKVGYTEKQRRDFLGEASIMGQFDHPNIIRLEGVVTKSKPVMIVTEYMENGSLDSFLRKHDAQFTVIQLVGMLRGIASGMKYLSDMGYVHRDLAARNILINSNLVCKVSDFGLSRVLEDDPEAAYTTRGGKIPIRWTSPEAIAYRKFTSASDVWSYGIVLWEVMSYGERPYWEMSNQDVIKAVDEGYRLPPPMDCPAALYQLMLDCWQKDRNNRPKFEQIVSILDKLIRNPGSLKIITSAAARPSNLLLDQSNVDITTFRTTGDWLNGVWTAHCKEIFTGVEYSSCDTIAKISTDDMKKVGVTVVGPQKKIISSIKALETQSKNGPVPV
Sequence of Ribosomal protein S6 kinase alpha-4 (Homo sapiens) (O75676 whole entry, looked up, the tested form may be a part): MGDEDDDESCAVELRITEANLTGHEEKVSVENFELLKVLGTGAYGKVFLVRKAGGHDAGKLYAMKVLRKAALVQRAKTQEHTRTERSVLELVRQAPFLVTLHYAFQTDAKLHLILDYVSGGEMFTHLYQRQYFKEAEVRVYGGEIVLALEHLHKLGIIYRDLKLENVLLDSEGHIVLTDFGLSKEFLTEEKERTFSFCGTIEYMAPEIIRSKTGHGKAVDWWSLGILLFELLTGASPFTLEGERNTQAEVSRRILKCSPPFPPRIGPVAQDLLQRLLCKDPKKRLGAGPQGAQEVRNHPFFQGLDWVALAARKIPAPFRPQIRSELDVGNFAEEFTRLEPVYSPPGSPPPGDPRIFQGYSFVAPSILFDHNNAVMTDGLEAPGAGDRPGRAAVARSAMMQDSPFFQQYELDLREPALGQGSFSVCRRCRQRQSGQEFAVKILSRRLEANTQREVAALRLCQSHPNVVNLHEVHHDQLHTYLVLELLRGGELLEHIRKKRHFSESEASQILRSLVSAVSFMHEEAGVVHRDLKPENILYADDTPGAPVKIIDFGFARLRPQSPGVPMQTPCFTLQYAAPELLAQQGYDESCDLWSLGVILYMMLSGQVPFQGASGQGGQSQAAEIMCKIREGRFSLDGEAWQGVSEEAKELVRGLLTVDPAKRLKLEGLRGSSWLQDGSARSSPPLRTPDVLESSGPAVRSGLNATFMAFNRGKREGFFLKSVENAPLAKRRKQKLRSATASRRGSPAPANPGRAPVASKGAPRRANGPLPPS
Sequence of Rhodopsin kinase GRK1 (Homo sapiens) (Q15835 whole entry, the tested form may be a part): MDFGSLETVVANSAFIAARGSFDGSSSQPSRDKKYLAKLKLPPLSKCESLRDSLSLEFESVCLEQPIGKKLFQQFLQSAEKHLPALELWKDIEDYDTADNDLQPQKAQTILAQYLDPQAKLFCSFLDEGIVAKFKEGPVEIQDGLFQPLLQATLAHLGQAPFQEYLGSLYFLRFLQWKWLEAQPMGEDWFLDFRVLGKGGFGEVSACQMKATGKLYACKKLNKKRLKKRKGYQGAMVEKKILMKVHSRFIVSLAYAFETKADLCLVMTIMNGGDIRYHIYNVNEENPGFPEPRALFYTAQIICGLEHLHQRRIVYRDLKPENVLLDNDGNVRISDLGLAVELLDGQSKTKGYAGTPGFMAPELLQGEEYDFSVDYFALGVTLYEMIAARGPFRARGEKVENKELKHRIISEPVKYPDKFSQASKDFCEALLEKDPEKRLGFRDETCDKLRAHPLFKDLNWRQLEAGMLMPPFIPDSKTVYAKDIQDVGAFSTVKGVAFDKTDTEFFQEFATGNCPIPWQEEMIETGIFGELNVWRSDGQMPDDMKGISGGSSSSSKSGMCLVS

## O=C(Nc1cc(-c2cn(CCNc3c4c(nc5ccccc35)CCCC4)nn2)ccn1)Nc1cccc2c1C1CCCCN1C2=O (racemic)
[1]
  Activity: 0.15%
[2]
  Activity: 14%
[3]
  Activity: 74%
[4]
  Activity: 77%
[5]
  Activity: 74%
[6]
  Activity: 1.8%
[7]
  Activity: 31%
[8]
  Activity: 87%
[9]
  Activity: 63%
[10]
  efflux ratio: 1.51
[11]
  Activity: 52%
[12]
  Activity: 40%
[13]
  Activity: 42%
[14]
  Activity: 83%
[15]
  Activity: 54%
[16]
  Activity: 69%
[17]
  Activity: 60%
[18]
  Activity: 30%
[19]
  Activity: 72%
[20]
  Activity: 37%
[21]
  Activity: 67%
[22]
  Activity: 4.2%
[23]
  Activity: 75%
[24]
  Activity: 4.8%
[25]
  Activity: 33%
